Test results published in patent publication US20240173255A1, “Polymeric Micelle Coated with Chain-Like Poorly Soluble Drug, Preparation Method and Application” (Hangzhou Hanjing Biotechnology Co., Ltd, priority 2021, published 2024).
Converted amounts (≈) assume the structure as drawn.

How the values were obtained:
[1] = Solubility of series A to E drugs in water and 10% Soluplus solution; type: physicochemical
Excerpt: The solubilities of the poorly soluble chain-like drugs of the series A to E according to the present disclosure in water and a 10% Soluplus solution are shown in Table 2.

Stability test in blood = type: in vitro ADME; conditions: 37° C., 2 h, FIG. 4
Description: Taking the polymeric micelle prepared according to Example 2 as an example: in a 96-well plate, 10 μL of the polymeric micelle was added, then 190 μL of blood was added and shaken quickly to be uniform. At 37° C., a resulting mixture was taken out at preset time points of 5 min, 30 min, 60 min, and 120 min separately, and centrifuged at 3,000 rpm for 10 min to separate a plasma layer (upper layer) and a red blood cell layer (lower layer), each 100 μL. The plasma and red blood cell samples were treated using an organic solvent extraction method, and a concentration of CPD14 molecules in the samples was quantified and analyzed using HPLC (gradient method), while CPD14 molecules not entrapped by Soluplus were used as a control.

[2] = system: mouse liver cancer H22 cells; assay: Cancer cell inhibition test (EZMTT), H22; type: cell-based; conditions: 5 days culture
Description: (§1) Taking the polymeric micelle prepared according to Example 2 as an example: the polymeric micelle was added to a 96-well plate, and 1,000 each of […] lung cancer A549 cells and mouse liver cancer H22 cells were added to each well.

[3] = system: mouse lung cancer A549 cells; assay: Cancer cell inhibition test (EZMTT), A549; type: cell-based; conditions: 5 days culture
Description: as §1

[4] = Bioavailability test (pharmacokinetics) in ICR mice; type: in vivo, mouse; conditions: 10 mg/kg tail vein injection
Description: 36 Institute of Cancer Research (ICR) mice weighing about 20 g were randomly divided into 2 groups, with 18 mice in each group. The mice all were separately administered using a CPD14 injection without Soluplus entrapment prepared according to Example 2 and the polymeric micelle prepared according to Example 2 in the same concentration, at a dose of 10 mg/kg by tail vein injection. Blood was collected at 0.003 h, 0.17 h, 0.5 h, 1 h, 2 h, 4 h, 8 h, 12 h, and 24 h after administration, and a plasma concentration of CPD14 was measured after treating the whole blood or plasma.

[5] = system: H22 mouse liver cancer subcutaneous tumor transplants; assay: Treatment test on subcutaneous tumor transplants in mice; type: in vivo; conditions: ICR mice, 20 mg/kg tail vein once a day for 10 days, tumors removed on 11th day
Description: 30 ICR mice weighing about 20 g were randomly divided into 3 groups, with 10 mice in each group. Liver cancer H22 cells were inoculated subcutaneously into the right armpit of mice. The next day, mice in Group 1 were injected with CPD14 injection without Soluplus prepared according to Example 2 at 20 mg/kg through the tail vein; mice in Group 2 waere injected with the polymeric micelle prepared according to Example 2 at 20 mg/kg through the tail vein; and mice in Group 3 were injected with the Soluplus blank micelle without drug at 20 mg/kg through the tail vein. The mice were injected once a day for 10 consecutive days, and the body weight of the mice was recorded and the status of the mice was observed every day. On the 11th day, the tumors of the mice were removed and measured.

COc1ccc2[se]n(CCCCCCn3[se]c4ccc(O)cc4c3=O)c(=O)c2c1 [CPD14]
Solubility in 10% Soluplus ([1]; 10% Soluplus solution): >1 mg/mL
Solubility in water ([1]; water): 0.01 mg/mL (≈ 19.1 µM)
stability rate in blood (Stability test in blood): significantly lower than that of the polymeric micelle
IC50 [2]: 510 ± 40 nM
IC50 [3]: 490 ± 70 nM
AUC0 h→24 h [4]: 9.6 ± 1.1 µg·h/mL
CL [4]: 1.02 ± 0.12 L/h/kg
Cmax [4]: 6.6 ± 0.7 µg/mL
T1/2β [4]: 1.7 ± 0.01 h
Tmax [4]: 1.98 min
Tumor weight of H22 tumor transplant [5]: 2.15 ± 0.05 g
